Measured values published in article PMC12221989, “One-carbon homologation of alkenes” (Nature, 2025).

How the values were obtained:
[1] = tested on: calcineurin in the presence of Cyclophilin A; experiment: Calcineurin inhibition assay (phosphatase activity in the presence of Cyclophilin A); assay type: biochemical; conditions: for IC50: with CypA, calcineurin/calmodulin, RII phosphopeptide substrate, 30 °C 45 min, Malachite green A620, duplicate, IC50 from mean averages
Experimental: Calcineurin inhibition assay
Calcineurin inhibition assays were conducted by Eurofins Integrated Discovery UK Ltd (EID) to determine the effect of compounds on the activity of calcineurin in the presence of Cyclophilin A. Assays were performed in duplicate, with IC50 values calculated from mean […]
Compounds were diluted with and without immunophilin (CypA) in a 96-well plate. After addition of calcineurin/calmodulin complex, the plate was incubated at 30 °C for 10 minutes.
The addition of the RII phosphopeptide substrate initiated the reaction, and the plate was […]
The reaction was stopped by the addition of Malachite green reagent. The plate was incubated at room temperature to allow colour development (5 – 20 mins). After sufficient colour has developed, the absorbance is read at 620 nm. Blank subtracted absorbance readings are plotted against compound concentration to determine IC50 values or % inhibition at the top concentration.

[2] = Reversed-phase HPLC retention as measure of lipophilicity; conditions: reversed-phase C18, Fig. S4-b; corroborates calculated lipophilicity
in vitro = conditions: human
Experimental: Metabolic stability assay
Hepatic microsomal stability assays were conducted by Charles River Laboratories. Assays were performed in duplicate.
The stability of the test compound (1 µM) was measured following incubation at 37 °C with […] (0.5 mg protein/mL) in the presence of the cofactor, NADPH.
Incubates were prepared in duplicate, with aliquots removed at 0, 5, 10, 20 and 40 minutes and reactions terminated, and the compound was extracted by the addition of solvent. The disappearance of the parent compound was be monitored by LC-MS/MS and the half-life determined over the time-course of incubation. The half-life value was used to calculate the in vitro intrinsic clearance expressed as µL/min/mg protein.
Table S11. Metabolic Stability Data
Half- Half- Half- Clint Clint Mean Clint
Compound Cofactor life life Life (uL/min/mg (uL/min/mg (uL/min/mg Species (min) (min) (min) protn) n=1 protn) n=2 protn) (results)

Human Cyclophilin A = Human Cyclophilin A (Homo sapiens, UniProt P62937); experiment: PPIase TR-FRET competitive binding assay
Experimental: PPIase TR-FRET competitive binding assay
Cyclophilin A assays were conducted by Eurofins Integrated Discovery UK Ltd (EID) to determine the inhibitory activity of the analogues against the Human Cyclophilin A in a TR-FRET Competitive Binding assay. Assays were performed in duplicate, with Kd values calculated from mean averages. […]
binding to the CypA enzyme: the CypA enzyme, tagged with a polyhistidine sequence, forms a complex with an anti-6xHis antibody labelled with a fluorescent donor, F(d), and the enzyme […]
Compounds are diluted from DMSO stocks to 50-fold the final concentration and then in assay buffer to 2-fold the final assay plate concentration. An equal volume of compound is added to the master mix in the assay plate containing the enzyme/antibody/ligand complex, with a final concentration of detergent of 0.01%. This is incubated for 30 mins at room temperature and the plate read at 2 wavelengths (A and B) to detect emission from F(d) and F(a), respectively. The ratio B/A is calculated, blank subtracted and either expressed as a percentage of the ‘no inhibitor’ control or the blank subtracted values are plotted against the inhibitor concentration in Log10 Molar and fitted using one site Ki nonlinear regression to determine the Kd. Where possible, compound Kds are determined from duplicate data points. Each assay plate is set up with ‘no enzyme’ blanks and ‘no inhibitor’ controls, which are used to determine the Z’ value for each plate.

Jurkat cells = experiment: IL-2 release assay, Jurkat cells stimulated with anti-CD3/anti-CD28; assay type: cell-based, human; conditions: for suppression of IL-2 secretion (in words): at high concentrations (≥1 µM), Jurkat T cells; for IL-2 levels, Mean: mean of three replicates normalized to the vehicle control
Experimental: Interleukin-2 (IL-2) release assays were conducted by Eurofins Pan Labs to determine ability for the analogues to inhibit IL-2 secretion from Jurkat cells following stimulation with anti-CD3 and anti-CD28 for a period of 24 hours. Data shown are means of three replicates normalized to the vehicle control
1) Cryopreserved Jurkat cells were thawed and cultured according to established protocols for four days at 37°C, 5% CO2 prior to assay.
2) Jurkat cells were harvested and seeded into 96-well plates at a density of 2x10^5 cells/well with […]
penicillin/streptomycin, and 2 mM L-glutamine).
3) Cells were incubated at 37°C, 5% CO2 for 1 hour prior to the addition of test agents.
4) The test agents were serially diluted in DMSO to 1000X assay concentrations, then further diluted to 20X assay concentrations in culture medium. The reference inhibitor Cyclosporin A (Sigma Aldrich catalog #C1832) was diluted to 1000X assay concentrations in DMSO before dilution to 20X assay concentration in culture medium.
5) The test agents, reference inhibitor, and diluted vehicle controls were added to the cells in volumes of 10 μL in triplicate and incubated for 1 hour at 37°C, 5% CO2. […]
concentrations in culture medium. The corresponding isotype controls were diluted to 5X assay concentrations in culture medium.
7) Diluted anti-CD3/anti-CD28 was added to test agent and positive control wells in volumes of 40 μL according to the plate map. Isotype controls were added to the isotype control wells.
Culture medium was added to vehicle and unstimulated control wells. […]
assay volumes of 200 μL and control concentrations of 50 ng/mL cyclosporin A (reference inhibitor), 0.1% DMSO (vehicle), 15 μg/mL anti-CD3, and 15 μg/mL anti-CD28.
8) Cells were incubated for 24 hours at 37°C, 5% CO2.
9) At the end of the incubation period, plates were centrifuged at 200g for 10 minutes. Cell culture supernatants were collected and stored at -80°C until needed for analysis.
Data Analysis and Analyte Limits of Detection
IL-2 cytokine levels in cell culture supernatants were determined using Luminex methodology per the manufacturer’s protocol using the Human Cytokine/Chemokine/Growth Factor Panel A Kit from Millipore Sigma (catalog #HCYTA-60K) with standard ranges and limits of detection in Table S9. Levels of each cytokine were interpolated from standard curves using non-linear regression analysis in Belysa Software (Millipore Sigma). The raw data in the form of median fluorescence unit was interpolated into test concentrations (pg/mL). The interpolated data were then normalized to the vehicle control
Table S9. Analyte limit of detection
Analyte Lowest standard (pg/mL) Highest standard (pg/mL) Sensitivity (pg/mL) […]
Reported mean values (pg/mL) are from three biological replicates normalized to the vehicle […]
Fig. S5. IL-2 release by Jurkat cells following stimulation with anti-CD3/anti-CD28 and treatment with the indicated test agent for 24 hours. Error bars indicate the standard error of the […]

[3] = in vitro calcineurin phosphatase activity assay

Human Cyclophilin A, sequence (P62937 whole entry): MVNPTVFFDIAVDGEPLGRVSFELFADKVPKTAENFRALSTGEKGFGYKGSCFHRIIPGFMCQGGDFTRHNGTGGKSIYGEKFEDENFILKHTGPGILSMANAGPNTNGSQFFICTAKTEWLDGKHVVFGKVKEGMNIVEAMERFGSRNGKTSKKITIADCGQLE

Row | decrease in phosphatase activity compared with cyclosporine A [1, 3] [fold] | IC50 [1] [nM] | increase of HPLC retention time upon each homologation event [2] | half-life at 1 µM (in vitro; both, liver microsomes) [min] | Clint (uL/min/mg protn) n=1 (in vitro) [uL/min/mg protn] | Clint (uL/min/mg protn) n=2 (in vitro) [uL/min/mg protn] | Half-life (min) n=1 (in vitro) [min] | Half-life (min) n=2 (in vitro) [min] | Mean Clint (uL/min/mg protn) (in vitro) | Kd (Human Cyclophilin A) [nM] | Compound | suppression of IL-2 secretion (in words) (Jurkat cells) | IL-2 levels, Mean (Jurkat cells; test agent 0.10 µM) [pg/mL] | IL-2 levels, Mean (Jurkat cells; test agent 0.32 µM) [pg/mL] | IL-2 levels, Mean (Jurkat cells; test agent 1.0 µM) [pg/mL] | IL-2 levels, Mean (Jurkat cells; test agent 3.2 µM) [pg/mL] | IL-2 levels, Mean (Jurkat cells; test agent 10 µM) [pg/mL] | calcineurin inhibition compared with cyclosporine A (in words) [1, 3] | IL-2 levels, Mean (Jurkat cells; test agent 0.032 µM) [pg/mL]
1 | 3.5 | 401 | ~ 2.5 minutes | 32 | 40 | 46 | 35 | 30 | 43 | 76.7 | C/C=C/CC[C@@H](C)[C@@H](O)[C@H]1C(=O)N[C@@H](CC)C(=O)N(C)CC(=O)N(C)[C@@H](CC(C)C)C(=O)N[C@@H](C(C)C)C(=O)N(C)[C@@H](CC(C)C)C(=O)N[C@@H](C)C(=O)N[C@H](C)C(=O)N(C)[C@@H](CC(C)C)C(=O)N(C)[C@@H](CC(C)C)C(=O)N(C)[C@@H](C(C)C)C(=O)N1C [compound 21, E-homo Cyclosporine-A] | effectively suppressed IL-2 secretion | 11.7 | 3.5 | 1.6 | 1.1 | 1.0 | – | –
2 | – | 158 | ~ 2.5 minutes | – | 81 | 78 | 17 | – | 79 | 23.6 | C/C=C/CCC[C@@H](C)[C@@H](O)[C@H]1C(=O)N[C@@H](CC)C(=O)N(C)CC(=O)N(C)[C@@H](CC(C)C)C(=O)N[C@@H](C(C)C)C(=O)N(C)[C@@H](CC(C)C)C(=O)N[C@@H](C)C(=O)N[C@H](C)C(=O)N(C)[C@@H](CC(C)C)C(=O)N(C)[C@@H](CC(C)C)C(=O)N(C)[C@@H](C(C)C)C(=O)N1C [compound 22, E-bishomo Cyclosporine-A] | effectively suppressed IL-2 secretion | 1.9 | 1.1 | 0.9 | 0.5 | 0.7 | retained comparable potency to cyclosporine A | 7.0
